Assay results taken from patent US12077503B2, “Substituted cyclic amides and their use as herbicides” (FMC CORPORATION, priority 2015, dated 2024).

Key:
Type in all cases: in vivo
Kochia (Kochia scoparia) = experiment: Test A preemergence; conditions: Bassia scoparia, pre-emergence, 240 h
Method in brief: (§1)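 Seeded soil received test chemicals as a preemergence directed spray, and seedlings at one to two leaves, 2–10 cm tall, received them postemergence, in a non-phytotoxic, surfactant-containing solvent mixture. Pots were held in a greenhouse for approximately 10 d, then rated for injury from 0, no effect, to 100, complete control.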

[1] = test system: barnyardgrass (Echinochloa crus-galli); experiment: Test A preemergence; conditions: Echinochloa crus-galli, pre-emergence, 240 h
Method in brief: as §1

[2] = test system: giant foxtail (Setaria faberii); experiment: Test A preemergence; conditions: Setaria faberi, pre-emergence, 240 h
Method in brief: as §1

[3] = test system: pigweed (Amaranthus retroflexus); experiment: Test A preemergence; conditions: Amaranthus retroflexus, pre-emergence, 240 h
[4] = test system: ragweed (common ragweed, Ambrosia elatior); experiment: Test A preemergence; conditions: Ambrosia artemisiifolia, pre-emergence, 240 h, 500 g ai/ha, preemergence; visual injury rating about 10 d after treatment, 0 to 100 scale (0 no effect, 100 complete control); read-out: Ragweed plant response rating
Method in brief: as §1

[5] = test system: ryegrass, Italian (Italian ryegrass, Lolium multiflorum); experiment: Test A preemergence; conditions: Lolium multiflorum, pre-emergence, 240 h
Method in brief: as §1

[6] = test system: Galium (catchweed bedstraw, Galium aparine); experiment: Test A postemergence; conditions: Galium, post-emergence, 240 h, postemergence, approx. 10 d
Method in brief: as §1

[7] = test system: barnyardgrass (Echinochloa crus-galli); experiment: Test A postemergence; conditions: Echinochloa crus-galli, post-emergence, 240 h, read-out: Plant response rating, Barnyardgrass
Method in brief: as §1

[8] = test system: blackgrass (Alopecurus myosuroides); experiment: Test A postemergence; conditions: Alopecurus myosuroides, post-emergence, 240 h, read-out: Plant response rating, Blackgrass
Method in brief: as §1

corn (Zea mays) = experiment: Test A postemergence; conditions: Zea mays, post-emergence, 240 h
Method in brief: as §1

[9] = test system: giant foxtail (Setaria faberii); experiment: Test A postemergence; conditions: Setaria faberi, post-emergence, 240 h, postemergence, approx. 10 d
Method in brief: as §1

[10] = test system: pigweed (Amaranthus retroflexus); experiment: Test A postemergence; conditions: Amaranthus retroflexus, post-emergence, 240 h, 125 g ai/ha, postemergence; visual injury on 0 to 100 scale (0 no effect, 100 complete control), approx. 10 d; read-out: Pigweed plant response rating
Method in brief: as §1

[11] = test system: ragweed (common ragweed, Ambrosia elatior); experiment: Test A postemergence; conditions: Ambrosia artemisiifolia, post-emergence, 240 h, 125 g ai/ha, postemergence; visual injury on 0 to 100 scale (0 no effect, 100 complete control), approx. 10 d; read-out: Ragweed plant response rating
Method in brief: as §1

[12] = test system: ryegrass, Italian (Italian ryegrass, Lolium multiflorum); experiment: Test A postemergence; conditions: Lolium multiflorum, post-emergence, 240 h, 125 g ai/ha, postemergence; visual injury on 0 to 100 scale (0 no effect, 100 complete control), approx. 10 d; read-out: Ryegrass, Italian plant response rating
Method in brief: as §1

[13] = test system: wheat (Triticum aestivum); experiment: Test A postemergence; conditions: Triticum aestivum, post-emergence, 240 h, 125 g ai/ha, postemergence; visual injury on 0 to 100 scale (0 no effect, 100 complete control), approx. 10 d; read-out: Wheat plant response rating
Method in brief: as §1

[14] = 125 g ai/ha, Postemergence, visual injury after approximately 10 d, 0 to 100 scale where 0 is no effect and 100 is complete control
[15] = 500 g ai/ha, postemergence, visual injury, 0 to 100 scale (0 no effect, 100 complete control), approx. 10 d

SMILES: Cc1cc([C@H]2CNC(=O)[C@@H]2C(=O)Nc2cccc(F)c2F)ccc1C(F)(F)F [Compound 1040]
- pest or weed control at 125 g/ha (Kochia (Kochia scoparia); 125 g ai/ha, Preemergence, visual injury rating after approximately 10 d, read-out: Kochia plant response rating (0 to 100 scale, 0 is no effect, 100 is complete control)): 50%
- pest or weed control at 500 g/ha (Kochia (Kochia scoparia); 500 g ai/ha, preemergence, visual injury rating about 10 d after treatment, 0 to 100 scale (0 no effect, 100 complete control), read-out: Kochia plant response rating): 80%
- pest or weed control at 125 g/ha ([1]; 125 g ai/ha, Preemergence, visual injury rating after approximately 10 d, read-out: Barnyardgrass plant response rating (0 to 100 scale, 0 is no effect, 100 is complete control)): 90%
- pest or weed control at 500 g/ha ([1]; 500 g ai/ha, preemergence, visual injury rating about 10 d after treatment, 0 to 100 scale (0 no effect, 100 complete control), read-out: Barnyardgrass plant response rating): 90%
- pest or weed control at 125 g/ha ([2]; 125 g ai/ha, Preemergence, visual injury rating after approximately 10 d, read-out: Foxtail, Giant plant response rating (0 to 100 scale, 0 is no effect, 100 is complete control)): 90%
- pest or weed control at 500 g/ha ([2]; 500 g ai/ha, preemergence, visual injury rating about 10 d after treatment, 0 to 100 scale (0 no effect, 100 complete control), read-out: Foxtail, Giant plant response rating): 90%
- pest or weed control at 125 g/ha ([3]; 125 g ai/ha, Preemergence, visual injury rating after approximately 10 d, read-out: Pigweed plant response rating (0 to 100 scale, 0 is no effect, 100 is complete control)): 30%
- pest or weed control at 500 g/ha ([3]; 500 g ai/ha, preemergence, visual injury rating about 10 d after treatment, 0 to 100 scale (0 no effect, 100 complete control), read-out: Pigweed plant response rating): 40%
- pest or weed control at 500 g/ha [4]: 80%
- pest or weed control at 125 g/ha ([5]; 125 g ai/ha, Preemergence, visual injury rating after approximately 10 d, read-out: Ryegrass, Italian plant response rating (0 to 100 scale, 0 is no effect, 100 is complete control)): 50%
- pest or weed control at 500 g/ha ([5]; 500 g ai/ha, preemergence, visual injury rating about 10 d after treatment, 0 to 100 scale (0 no effect, 100 complete control), read-out: Ryegrass, Italian plant response rating): 50%
- pest or weed control at 125 g/ha ([6]; 125 g ai/ha, visual injury on 0 to 100 scale (0 no effect, 100 complete control), read-out: Galium plant response rating): 50%
- pest or weed control at 500 g/ha ([6]; 500 g ai/ha, visual injury, 0 to 100 scale (0 no effect, 100 complete control), read-out: Plant response rating, Galium): 70%
- pest or weed control at 125 g/ha [7, 14]: 80%
- pest or weed control at 500 g/ha [7, 15]: 90%
- pest or weed control at 125 g/ha [8, 14]: 60%
- pest or weed control at 500 g/ha [8, 15]: 70%
- Corn plant response rating (crop injury, 0 = no effect, 100 = complete kill) at 125 g/ha (corn (Zea mays); [14]): 60%
- Corn plant response rating (crop injury, 0 = no effect, 100 = complete kill) at 500 g/ha (corn (Zea mays); [15]): 80%
- pest or weed control at 125 g/ha ([9]; 125 g ai/ha, visual injury on 0 to 100 scale (0 no effect, 100 complete control), read-out: Foxtail, Giant plant response rating): 80%
- pest or weed control at 500 g/ha ([9]; 500 g ai/ha, visual injury, 0 to 100 scale (0 no effect, 100 complete control), read-out: Plant response rating, Foxtail, Giant): 90%
- pest or weed control at 125 g/ha [10]: 40%
- pest or weed control at 125 g/ha [11]: 0%
- pest or weed control at 125 g/ha [12]: 30%
- plant injury at 125 g/ha [13]: 20%
